The values that follow come from PMC5897741, “Thermokinetic profile of NDM-1 and its inhibition by small carboxylic acids” (Bioscience Reports, 2018).

For experiment [1], the target named is T1, NDM-1 (Klebsiella pneumoniae, UniProt C7C422). In words: biochemical. On the procedure: Rates were also determined in the presence of inhibitor by pre-incubation with the enzyme for 30 min at RT before starting kinetic experiments. IC50 values were determined using GraphPad Prism5 software (GraphPadSoftware, La Jolla, CA, USA) by plotting percentage of inhibition against inhibitor concentration; average values from three measurements are reported.

Experiment [2] concerns clinical E. coli–NDM-1 strain. In words: MIC determination, broth microdilution (CLSI). As to conditions: for synergistic effect with imipenem: 200 and 400 μM inhibitor. Type of experiment: cell-based, Escherichia coli. As for the experimental part:
Single colonies of E. coli–NDM-1 were used to inoculate Mueller–Hinton medium and were grown at 37°C overnight. […] Results were obtained after incubating the microtitre plate at 37°C for a further 18 h and turbidity of bacterial growth was recorded using a plate reader.
A general note: In broth dilution the organism is exposed to a series of concentrations in liquid medium.

Experiment [3] relates to clinical E. coli strain expressing NDM-1 gene (E. coli–NDM-1). As to conditions: 400 μM compound, imipenem titrated into E. coli–NDM-1 suspension; efficacy order 7 > 1 > 8.
For a further experiment, the system named is CcrA. The note with it: cited from earlier work.
The test system of the next experiment is ImiS. As to conditions: cited from earlier work.
A further experiment concerns L1. The note with it: cited from earlier work.
The target of experiment [4] is T1, NDM-1. In words: ITC multi-injection inhibition assay. As to conditions: for Kiu (uncompetitive inhibition constant): ITC inhibition assay, penicillin G, 25°C, 50 mM Tris–HCl, pH 7.0, 100 mM NaCl; for mode of inhibition: pH 7.0. Type of experiment: biochemical. Further details: made in house; host or cells: E. coli. The text has this: Competitive (Kic) and uncompetitive (Kiu) inhibition constant values for each inhibitor were obtained by fitting calculated reaction rates (υ) at different inhibitor concentrations to (eqn 5) using nonlinear regression analysis in Origin software (embedded with ITC), with Kic and Kiu set as shared parameters between all datasets, inhibitor concentration [I], [E]tot, [S] as independent variables and υ as dependent variable.

The target in experiment [5] is T1, NDM-1. The note with it: ITC, pH 7.0, 25°C. The text has this:
Successive injections of antibiotic into the sample cell were made at 120 s intervals. Following (eqn 3), the change in thermal power (dQ/dt) from each titration was converted into the reaction rate (υ). These rates were used to fit to the Michaelis–Menten equation (eqn 4) to obtain the kinetic parameters KM (Michaelis–Menten constant) and kcat (turnover rates), where [E]tot is the total concentration of active enzyme. (3) υ=dP/dt=1/VΔHapp⋅dQ/dt (4) υ=kcat[E]tot[S]/KM+[S]

For experiment [6], the target named is T1, NDM-1. In words: ITC single injection assay, enthalpy of β-lactam hydrolysis. Further details: made in house; host or cells: E. coli. Type of experiment: biochemical. The note with it: for ΔHapp: NDM-1 catalysed hydrolysis, Tris–HCl pH 7.0, 25°C; for ΔHint: Y-axis intercept of ΔHapp vs ΔHion; for ΔHint / n (number of exchanging protons): pH 7.0; for n (number of exchanging protons): slope of ΔHapp vs ΔHion. As for the experimental part:
Real-time changes of heat-flow were recorded continuously until return to baseline. Control experiments were performed by titrating substrate to buffer and using those data in corrections for heat of dilution before values of ΔHapp were determined using the embedded Origin software, by dividing integrated heat by the molar quantity of substrate converted according to (eqn 1), where dQ/dt is the rate of heat production, V is the volume of the sample cell and [S]t = 0 is the substrate concentration: (1) ΔH=ft=0∞dQ/dtdt/(V[S](t=0))
Experiments were also repeated in HEPES and phosphate buffers and the intrinsic enthalpy change (ΔHint) of the reactions calculated according to (eqn 2) by plotting the measured ΔHapp as a function of ΔHion, where ΔHion is the ionisation enthalpy of the buffer used and n represents the number of exchanging protons. The values of ΔHion used in the calculation were ΔHion (Tris–HCl) = 11.34 kcal/mol, ΔHion (HEPES) = 4.88 kcal/mol and ΔHion (phosphate) = 0.86 kcal/mol. (2) ΔHapp=ΔHint+n ΔHion

The target in experiment [7] is T1, NDM-1. The arrangement: made in house; host or cells: E. coli; method as in doi:10.1016/j.ejbas.2015.07.006. The note with it: cited from earlier work.
The next experiment relates to IMP-1. The note with it: cited from earlier work.
The subject of another experiment is CphA. As to conditions: cited from earlier work.

T1 sequence (C7C422 29-270 limits assumed): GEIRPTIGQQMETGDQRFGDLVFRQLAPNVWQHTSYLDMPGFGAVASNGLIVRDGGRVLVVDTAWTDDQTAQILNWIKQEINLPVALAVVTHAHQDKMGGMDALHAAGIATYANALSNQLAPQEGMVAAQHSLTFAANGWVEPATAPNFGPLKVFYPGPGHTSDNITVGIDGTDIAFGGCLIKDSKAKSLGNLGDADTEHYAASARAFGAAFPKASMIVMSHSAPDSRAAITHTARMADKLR

Turning to `O=C(O)[C@H]1CS[C@@H](C(=O)O)N1` (racemic) [Compound 8, rac-thiazolidine-2,4-dicarboxylic acid], it took 3.45 ± 0.26 µM to reach half-maximal inhibition at NDM-1 [1] (IC50). Also, the figures for the “MIC of imipenem in combination with inhibitor” value (from here on “MIC … with inhibitor”) in experiment [2] (200 μM inhibitor) and in experiment [2] (400 μM inhibitor) were 16 µg/mL and 8 µg/mL, respectively. The “reduction of MIC of imipenem” value in experiment [2] (400 μM inhibitor) is reported as 2 fold. Also, in experiment [2], the “synergistic effect with imipenem” value was “weaker synergy”. Further, in [3], the “inhibition of imipenem turnover in live bacteria” value was “capable of inhibiting the turnover rate of imipenem”. In addition, the “effect on activity” value with CcrA, in the experiment with ImiS and with L1 was “powerful effect” throughout. In addition, the Ki was 0.64 µM at CcrA (class B1 CcrA), 7.1 µM at ImiS (class B2 ImiS), 1.8 µM at L1 (class B3 L1) and 152 ± 6 µM at NDM-1 [4]. For the same compound, on NDM-1 [4], the “Kiu (uncompetitive inhibition constant)” value turned out to be 5 ± 0.46 µM. In addition, the mode of inhibition result at NDM-1 [4] is “predominantly uncompetitive”.

As to `Cc1nnc(SCC2=C(C(=O)O)N3C(=O)[C@@H](NC(=O)Cn4cnnn4)[C@H]3SC2)s1` [Cefazolin, cefazolin], on NDM-1 [5], the Km turned out to be 237 ± 14 µM and the kcat was found to be 42 ± 1 s⁻¹. Further, on NDM-1 [6], the ΔHapp was -28.3 ± 0.97 kcal/mol, the ΔHint is -5.20 ± 0.04 kcal/mol and the “n (number of exchanging protons)” value is −1.89 ± 0.04. The ΔHapp entry on NDM-1 [6] (listed as cefazolin) was “–28.3 kcal/mol”.

As to `C[C@H](CS)C(=O)N1CCC[C@@H]1C(=O)O` [Compound 1, D-Captopril, reference compound], the “Kiu (uncompetitive inhibition constant)” value at NDM-1 [4] stood at 178 ± 21 µM.

Take `Cc1cc(/N=N/c2ccc(O)c(C(=O)O)c2)ccc1O` [Compound 2]: the “predicted inhibition in docking” value on NDM-1 [7] is recorded as “predicted to inhibit NDM-1”.

As to `O=C(O)[C@@H](O)[C@H](O)C(=O)O` [Compound 5, D-(−)-tartaric acid], half-maximal inhibition on NDM-1 [1] (IC50) required 409 ± 16 µM. On NDM-1 [4], the inhibition constant Ki is 365 ± 72 µM, the “Kiu (uncompetitive inhibition constant)” value stood at 993 ± 107 µM and the mode of inhibition result is reported as “mainly competitive”.

`O=C(O)/C=C/C(=O)O` [Compound 6, fumaric acid]: at NDM-1 [1], the IC50 was determined as 232 ± 5 µM. At NDM-1 [4], the inhibition constant Ki was 198 ± 50 µM, the “Kiu (uncompetitive inhibition constant)” value came to 638 ± 94 µM and the mode of inhibition result was “mainly competitive”.

As to `O=C(O)c1cccc(C(=O)O)n1` [Compound 7, pyridine-2,6-dicarboxylic acid], on NDM-1 [1], the IC50 amounted to 1.13 ± 0.04 µM. The “MIC … with inhibitor” value in experiment [2] (200 μM inhibitor) is 4 µg/mL. Further, the “MIC … with inhibitor” value in [2] (400 μM inhibitor) turned out to be 1 µg/mL. For the same compound, in experiment [2], the “synergistic effect with imipenem” value is “restore the susceptibility”. The “inhibition of imipenem turnover in live bacteria” value in experiment [3] is given as “capable of inhibiting the turnover rate of imipenem”. Also, in the experiment on IMP-1, the “inhibition” value is recorded as “effective inhibitor”. Further, in the experiment on CphA, the “inhibition” value is listed as “effective inhibitor”. On NDM-1 [4], the inhibitory constant (Ki) is 2.17 ± 0.48 µM, the “Kiu (uncompetitive inhibition constant)” value came to 2.07 ± 0.06 µM and the mode of inhibition entry is on record as “mixed inhibitor”.

`C[C@@H](O)[C@H]1C(=O)N2C(C(=O)O)=C(SCCN=CN)C[C@H]12` [Imipenem, imipenem]: on NDM-1 [5], the Michaelis constant (Km) worked out at 168 ± 28 µM and the kcat turned out to be 23 ± 1 s⁻¹. Also, the MIC in [2] (Escherichia coli, 0 μM inhibitor, read-out: MIC of imipenem) turned out to be 16 µg/mL. Also, at NDM-1 [6], the ΔHapp is -32.5 ± 0.08 kcal/mol, the ΔHint was -18.4 ± 0.12 kcal/mol and the “n (number of exchanging protons)” value is given as −1.24 ± 0.02. Also, at NDM-1 [6] (listed as imipenem), the ΔHapp result is listed as “–32.5 kcal/mol” and the “n (number of exchanging protons)” value was −1.24 (± 0.02).

For `CC1(C)S[C@@H]2[C@H](NC(=O)Cc3ccccc3)C(=O)N2[C@H]1C(=O)O` [Penicillin G, penicillin G], at NDM-1 [5], the Km was 139 ± 12 µM and the turnover number (kcat) amounted to 54 ± 1 s⁻¹. Besides, on NDM-1 [6], the ΔHapp is -27.9 ± 0.01 kcal/mol, the ΔHint is -18.3 ± 0.73 kcal/mol and the “n (number of exchanging protons)” value is given as −0.87 ± 0.10. At NDM-1 [6] (listed as penicillin G), the ΔHapp result is on record as “–27.9 kcal/mol” and the “n (number of exchanging protons)” value is listed as −0.87 (± 0.10).

Usually IC50 stands for the point on the concentration scale where inhibition reaches its midpoint. As a reminder, the Ki is a measure of affinity in units of concentration, obtained from inhibition or displacement. The term Km denotes the concentration of substrate that gives half-maximal velocity. The term kcat denotes the number of substrate molecules converted per active site and unit of time at saturation. A word on the MIC: it is the least concentration at which growth counts as inhibited.
